Experiment [1] concerns differentiated L6-myotubes. In words: Glucose uptake screen (Biological example 1 of WO 2019/053427). Type of experiment: cell-based. The conditions noted are these: compound at 10 μM, activity relative to isoproterenol at 10 μM, read-out: Biological example 1 of WO 2019/053427 (GU). A digest of the protocol:
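Uptake was read out as ^3H-2-deoxyglucose (50 nM, 10 min) radioactivity in NaOH lysates. Beforehand, overnight-starved, differentiated L6 myotubes received compound at 1×10^−5 M with ICI-118551 present for 1 h 40 min, followed by fresh agonist for a further 20 min in glucose-free medium.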

Experiment [2] deals with differentiated L6-myotubes. In words: cAMP production relative to isoprenaline (Biological example 2 of WO 2019/053427). Type of experiment: cell-based. To be noted: 0.25 h, compound at 10 μM, activity relative to isoproterenol at 10 μM. A digest of the protocol: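 Values are cAMP levels relative to isoprenaline at equal concentration (final 1×10^−5 M for both). Stimulation lasted 15 min in differentiated L6 myotubes, using HBSS buffer (pH 7.4) containing 1 mM IBMX, 5 mM HEPES and 1% BSA.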
Background: Cyclic AMP is a second messenger, typically raised through Gs and lowered through Gi signalling.

The structures appear in SMILES notation.

In the case of `CC(C)(C[C@H]1CC[C@H](NS(C)(=O)=O)CC1)NC[C@H](O)c1cccc(C#N)n1` [Compound 426, 6-[(S)-2-{1,1-dimethyl-2-[(1r,4S)-4-(mesylamino)cyclohexyl]ethylamino}-1-hydroxyethyl]-2-pyridinecarbonitrile], the results for the Emax at 10 µM in experiment [1] and in experiment [2] were above 75% and below 25%, respectively.

Take `CC1(C)CCC[C@H]([C@H](O)c2ccccc2F)N1` [Compound 177, (R)-[(R)-6,6-dimethyl-2-piperidyl](o-fluorophenyl)methanol]: the Emax at 10 µM in experiment [1] was 50 to 75%; in experiment [2], below 25%.

On to `CC(C)(C[C@H]1CC[C@@H](NC(=O)C2CC2)CC1)NC[C@H](O)c1cccc(F)c1` [Compound 447, N-[(1S,4s)-4-{2-[(R)-2-(m-fluorophenyl)-2-hydroxyethylamino]-2-methylpropyl}cyclohexyl]cyclopropanecarboxamide], for which the Emax at 10 µM in experiment [1] is above 75%; in experiment [2] it was below 25%.

In the case of `CS(=O)(=O)N[C@H]1CC[C@@H](C[C@@H]2CC[C@H]([C@H](O)c3cccc(F)c3)N2)CC1` [Compound 510, (R)-[(2R,5S)-5-{[(1s,4R)-4-(mesylamino)cyclohexyl]methyl}-2-pyrrolidinyl](m-fluorophenyl)methanol], the Emax at 10 µM in experiment [1] is above 75%; in experiment [2], below 25%.

Regarding `CO[C@H]1CC[C@H](C(C)(C)NC[C@H](O)c2cncc(F)c2)CC1` [Compound 240, (R)-1-(5-fluoro-3-pyridyl)-2-{1-methyl-1-[(1r,4R)-4-methoxycyclohexyl]ethyl-amino}-1-ethanol], the Emax at 10 µM was above 75% in experiment [1] and below 25% in experiment [2].

On to `CCCCNCC(O)c1ccc(F)c(F)c1` (stereo not shown) [Compound 56, 2-(butylamino)-1-(3,4-difluorophenyl)-1-ethanol], for which the Emax at 10 µM in experiment [1] is 50 to 75%; in experiment [2], below 25%.

Consider `CC12CC(C1)[C@@H]([C@H](O)c1cccc(F)c1)N2` [Compound 188, (R)-{(S)-1-methyl-2-azabicyclo[2.1.1]hex-3-yl}(m-fluorophenyl)methanol], for which the Emax at 10 µM in experiment [1] and in experiment [2] was below 25% each time.

Regarding `CO[C@H]1CC[C@@H](CNC[C@H](O)c2cncc(F)c2)CC1` [Compound 246, (R)-1-(5-fluoro-3-pyridyl)-2-({[(1s,4S)-4-methoxycyclohexyl]meth-yl}amino)-1-ethanol], the Emax at 10 µM in experiment [1] was 50 to 75%; in experiment [2], below 25%.

With `O[C@@H](CNC[C@H]1CC[C@H](O)CC1)c1cccc(F)c1` [Compound 272, (R)-1-(m-fluorophenyl)-2-({[(1r,4R)-4-hydroxycycloehxyl]meth-yl}amino)-1-ethanol], the Emax at 10 µM in experiment [1] is 25 to 50%; in experiment [2], below 25%.

With `CC(C)(C)NC[C@H](O)c1ccc(F)cc1O` [Compound 80, (R)-2-(tert-butylamino)-1-(4-fluoro-2-hydroxyphenyl)-1-ethanol], the Emax at 10 µM in experiment [1] is 50 to 75%; in experiment [2] it was below 25%.

`CCCCNCC(O)c1ccc(F)c(N)c1F` (stereo not shown) [Compound 43, 1-(3-amino-2,4-difluorophenyl)-2-(butylamino)-1-ethanol]: the results for the Emax at 10 µM in experiment [1] and in experiment [2] were above 75% and below 25%, respectively.

As to `CC(=O)N[C@H]1CC[C@H](CC(C)(C)NC[C@H](O)c2cncc(F)c2)CC1` [Compound 357, N-[(1R,4r)-4-{2-[(R)-2-(5-fluoro-3-pyridyl)-2-hydroxyethylamino]-2-methylpropyl}cyclohexyl]acetamide], the Emax at 10 µM in experiment [1] was above 75%; in experiment [2], below 25%.

For the compound `CC1(C)CC[C@@H]([C@@H](O)c2cccc(O)c2)N1` [Compound 143, m-{(S)-[(S)-5,5-dimethyl-2-pyrrolidinyl]hydroxymeth-yl}phenol], the Emax at 10 µM in experiment [1] and in experiment [2] was below 25% each time.

As to `CCC[C@@H]1CCC[C@H]([C@@H](O)c2cccc(O)c2)N1` [Compound 137, (S)-[(2R,6R)-6-propyl-2-piperidyl](m-hydroxyphenyl)methanol], the Emax at 10 µM in experiment [1] was 25 to 50%; in experiment [2], below 25%.

Regarding `CC(C)(C)NC[C@H](O)c1ccc(Cl)cn1` [Compound 147, (S)-2-(tert-butylamino)-1-(5-chloro-2-pyridyl)-1-ethanol], the Emax at 10 µM in experiment [1] was 25 to 50%; in experiment [2], below 25%.

Take `COc1ccc(C[C@H]2CC[C@H]([C@H](O)c3cncc(F)c3)N2)cc1` [Compound 379, (R)-{(2R,5R)-5-[(p-methoxyphenyl)methyl]-2-pyrrolidinyl}(5-fluoro-3-pyridyl)methanol]: the Emax at 10 µM in experiment [1] is above 75%; in experiment [2], below 25%.

For the compound `CCCCNC(C)C(O)c1ccc(O)cc1` (stereo not shown) [Compound 12, 2-(butylamino)-1-(p-hydroxyphenyl)-1-propanol], the Emax at 10 µM in experiment [1] was 50 to 75%; in experiment [2], below 25%.

Consider `CC(C)(C)NC[C@H](O)c1cccc(F)c1` [Compound 54, (R)-2-(tert-butylamino)-1-(m-fluorophenyl)-1-ethanol], for which the Emax at 10 µM in experiment [1] was above 75%; in experiment [2], below 25%.

Consider `CCCCNCC(O)c1cc(F)cc(F)c1` (stereo not shown) [Compound 55, 2-(butylamino)-1-(3,5-difluorophenyl)-1-ethanol], for which the Emax at 10 µM in experiment [1] was 50 to 75%; in experiment [2], below 25%.

`CC1(C)C[C@H]([C@H](O)c2cncc(F)c2)N1` [Compound 214, (R)-[(R)-4,4-dimethyl-2-azetidinyl](5-fluoro-3-pyridyl)methanol]: the Emax at 10 µM in experiment [1] was above 75%; in experiment [2], below 25%.

Turning to `CC(C)(C)NCC(O)c1ccncc1O` (stereo not shown) [Compound 134, 4-[2-(tert-butylamino)-1-hydroxyethyl]-3-pyridinol], the Emax at 10 µM in experiment [1] was above 75%; in experiment [2], below 25%.

For `O[C@@H](CNC[C@H]1CC[C@@H](O)CC1)c1cccc(F)c1` [Compound 268, (R)-1-(m-fluorophenyl)-2-({[(1s,4S)-4-hydroxycyclohexyl]meth-yl}amino)-1-ethanol], the Emax at 10 µM in experiment [1] was 25 to 50%; in experiment [2], below 25%.

On to `CO[C@H]1CCC[C@@H](C(C)(C)NC[C@H](O)c2cncc(F)c2)C1` [Compound 270, (R)-2-{1-[(1R,3S)-3-methoxycyclohexyl]-1-methylethylamino}-1-(5-fluoro-3-pyridyl)-1-ethanol], for which the Emax at 10 µM is above 75% in experiment [1] and 50 to 75% in experiment [2].

For `CCC[C@@H]1CCCC[C@H]([C@H](O)c2cncc(F)c2)N1` [Compound 219, (R)-[(2R,7R)-7-propyl-2-azepanyl](5-fluoro-3-pyridyl)methanol], the Emax at 10 µM in experiment [1] and in experiment [2] was below 25% in each case.

On to `CCCCNCC(O)c1ccc(Cl)c(N)c1` (stereo not shown) [Compound 36, 1-(3-amino-4-chlorophenyl)-2-(butylamino)-1-ethanol], for which the Emax at 10 µM in experiment [1] was 25 to 50%; in experiment [2], below 25%.

In the case of `O[C@H](c1cncc(F)c1)C12CCC(COCc3ccc(F)cc3)(CC1)N2` [Compound 443, (R)-(4-{[(p-fluorophenyl)methoxy]methyl}-7-azabicyclo[2.2.1]hept-1-yl)(5-fluoro-3-pyridyl)methanol], the Emax at 10 µM in experiment [1] was above 75%; in experiment [2] it was 25 to 50%.

Source of the values: US20260256751A1, “COMBINATION OF BETA-2-ADRENERGIC RECEPTOR AGONISTS AND GLP-1 RECEPTOR AGONISTS FOR USE IN TREATING HYPERGLYCAEMIA” (ATROGI AB, priority 2023, published 2026).
